{"source": "patent US4673674A", "about": "“Diazepinoindoles useful for treating depression, schizophrenia, social withdrawal or anxiety and pharmaceutical compositions containing them” (Sandoz Pharmaceuticals Corp., priority 1984, dated 1987)", "key": {"[1]": {"target": "T1, 5-HT2 receptors in the rat frontal cortex (Rattus norvegicus, UniProt P14842)", "T1 construct": "Fresh frontal cortex tissue from rat brain is homogenized; from tissue; host or cells: rat frontal cortex membranes", "T1 sequence (P14842 whole entry)": "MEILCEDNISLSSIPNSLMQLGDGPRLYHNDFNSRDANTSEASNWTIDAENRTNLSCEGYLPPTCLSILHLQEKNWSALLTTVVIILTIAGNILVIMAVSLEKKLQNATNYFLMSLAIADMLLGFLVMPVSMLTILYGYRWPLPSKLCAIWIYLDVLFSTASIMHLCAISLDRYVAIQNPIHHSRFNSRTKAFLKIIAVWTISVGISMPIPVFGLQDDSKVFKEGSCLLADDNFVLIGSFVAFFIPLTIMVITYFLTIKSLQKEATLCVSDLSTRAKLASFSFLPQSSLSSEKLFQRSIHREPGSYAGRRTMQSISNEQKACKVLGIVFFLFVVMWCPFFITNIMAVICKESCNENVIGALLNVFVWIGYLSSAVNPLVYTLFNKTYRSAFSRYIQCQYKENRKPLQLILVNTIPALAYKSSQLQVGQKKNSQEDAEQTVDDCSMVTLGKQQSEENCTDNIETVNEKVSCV", "experiment": "inhibition of specific 3H-spiperone binding to 5-HT2 receptors in rat frontal cortex", "settings": "rat frontal cortex membranes, 1 nM 3H-spiperone, 1 h at 37° C., pH 7.7", "procedure": "This test has been carried out as follows:\nFresh frontal cortex tissue from rat brain is homogenized in a 20 fold volume of Tris-HCl buffer (50 mM, pH 7.7, containing 4 mM CaCl2, 10 μM pargyline, and 0.1% ascorbic acid), and centrifuged. The pellets are resuspended in a 25 fold volume of the same buffer, incubated for 15 min at 37° C., and recentrifuged. The pellets are frozen at -20° C. and resuspended in a 360 fold volume of the same buffer as above before use for the binding experiment. The composition of the assay mixtures (total volume =2 ml) is as follows: 50 mM Tris-HCl pH 7,7, 4 mM CaCl2, 10 μM pargyline, 0.1% ascorbic acid, membranes corresponding to 5 mg of original tissue weight, and 1 nM ^3 H-spiperone. The assays for the determination of nonspecific binding additionally contain cinanserin in a concentration of 1 μM. […] After incubation for 1 hour at 37° C., the assay mixtures are rapidly filtered through Whatman GF/B filters and washed twice with 5 ml of ice cold incubation buffer."}, "locomotion in mice": {"system": "locomotion in mice", "experiment": "inhibition of locomotion in mice (neuroleptic activity)", "assay_type": "in vivo, mice (male, OF-1)", "settings": "Mus musculus, po, read-out: EDmin (inhibition of locomotion)", "procedure": "In this test groups of 3 male mice (18-24 g, OF-1, Sandoz Basle) received 3.2, 10, 32, 100 and 320 mg p.o. of the test drug."}, "[2]": {"target": "T2, 3H-spiperone binding sites in the brain (calf brain striatal tissue) (Bos taurus, UniProt P20288)", "T2 construct": "fresh calf brain striatal tissue was homogenized; from tissue; host or cells: calf brain striatal membranes", "T2 sequence (P20288 whole entry)": "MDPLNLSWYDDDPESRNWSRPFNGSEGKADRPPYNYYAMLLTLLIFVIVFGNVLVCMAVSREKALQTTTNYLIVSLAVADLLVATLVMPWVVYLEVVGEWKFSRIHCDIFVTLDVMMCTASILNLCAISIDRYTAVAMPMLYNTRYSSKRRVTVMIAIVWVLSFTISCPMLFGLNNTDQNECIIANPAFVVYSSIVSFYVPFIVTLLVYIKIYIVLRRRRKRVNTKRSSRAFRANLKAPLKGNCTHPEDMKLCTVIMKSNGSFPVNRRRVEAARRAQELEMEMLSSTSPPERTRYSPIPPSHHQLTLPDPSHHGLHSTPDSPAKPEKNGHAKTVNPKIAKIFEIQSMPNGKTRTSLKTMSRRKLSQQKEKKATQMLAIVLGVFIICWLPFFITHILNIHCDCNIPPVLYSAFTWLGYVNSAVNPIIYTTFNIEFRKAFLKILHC", "experiment": "inhibition of specific 3H-spiperone binding in calf brain striatal tissue", "settings": "calf brain striatal membranes, 0.1 nM 3H-spiperone, 5×10^-7 M cinanserin, 40 minutes at room temperature"}, "paradoxical sleep (PS)": {"system": "paradoxical sleep (PS)", "experiment": "reduction of paradoxical sleep (PS) in the 48 h sleep EEG in rats", "assay_type": "in vivo", "settings": "3.2-32 mg/kg p.o.", "excerpt": "Kleinlogel \"EEG in Drug Research\" ed. by Hermann, Gustav Fischer Verlag, Stuttgart, N.Y., 75-88 (1982)]."}}, "note": "Read-outs that look alike come from different tables or passages of the source."}
{"smiles": "c1ccc(-c2c3n(c4ccccc24)CCN(CC2CC2)CC3)cc1", "note": "[Example 4, 3-Cyclopropylmethyl-2,3,4,5-tetrahydro-11-phenyl-1H-[1,4]diazepino[1,7-a]indole]", "values": [{"measurement": "IC50", "setting": "[1]", "result": "1 to 10", "unit": "nM"}]}
{"smiles": "CSc1ccc2c(c1)N(CCC1CCCCN1C)c1ccccc1S2", "note": "(stereo not drawn) [thioridazine, reference compound]", "values": [{"measurement": "minimal effective dose", "setting": "locomotion in mice; 1 h", "result": "10 to 32", "unit": "mg/kg"}]}
{"smiles": "c1ccc(-c2c3n(c4ccccc24)CCNCC3)cc1", "note": "[Example 2, 2,3,4,5,-Tetrahydro-11-phenyl-1H-[1,4]diazepino[1,7-a]indole]", "values": [{"measurement": "IC50", "setting": "[1]", "result": "1 to 10", "unit": "nM"}]}
{"smiles": "CN1CCc2c(-c3ccccc3)c3ccccc3n2CC1", "note": "[Example 1, 2,3,4,5-Tetrahydro-3-methyl-11-phenyl-1H-[1,4]diazepino[1,7-a]indole]", "values": [{"measurement": "IC50", "setting": "[1]", "result": "1 to 10", "unit": "nM"}]}
{"smiles": "C=CCN1CCc2c(-c3ccccc3)c3ccccc3n2CC1", "note": "[Example 3, 3-Allyl-2,3,4,5-tetrahydro-11-phenyl-1H-[1,4]diazepino-[1,7-a]indole]", "values": [{"measurement": "IC50", "setting": "[1]", "result": "1 to 10", "unit": "nM"}]}
{"smiles": "CN1CCc2c(-c3ccc(Cl)cc3)c3ccccc3n2CC1", "note": "[Example 5j]", "values": [{"measurement": "minimal effective dose", "setting": "locomotion in mice; male mice, 1 hour after administration", "result": 3.2, "unit": "mg/kg"}, {"measurement": "IC50", "setting": "[2]", "result": 137, "unit": "nM"}]}
{"smiles": "CN(C)CCC=C1c2ccccc2CCc2ccccc21", "note": "[amitriptyline, reference compound]", "values": [{"measurement": "IC50", "setting": "[1]", "result": 15, "unit": "nM"}, {"measurement": "reduction of paradoxical sleep (PS)", "setting": "paradoxical sleep (PS)", "result": "reduce further the paradoxical sleep (PS) without rebound"}]}
